Source: BindingDB's records for doi:10.1021/jm801475n (University of Dundee, 2009)

Biological target: T1, 2-C-methyl-D-erythritol 2,4-cyclodiphosphate synthase (Escherichia coli (strain K12), UniProt P62617)
T1 sequence (P62617 whole entry): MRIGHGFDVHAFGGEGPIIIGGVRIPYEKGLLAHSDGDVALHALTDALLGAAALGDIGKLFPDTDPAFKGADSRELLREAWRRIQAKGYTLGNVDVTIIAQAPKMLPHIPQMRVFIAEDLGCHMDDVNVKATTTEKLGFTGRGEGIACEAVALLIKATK
Assay: SPR Biosensor Assay
Settings: pH 7; 10 °C
Description: An SPR assay was used to determine the binding affinities of compounds. Experiments were performed on a Biacore 3000 (Biacore, Uppsala, Sweden) instrument with CM5 research grade chips (Biacore, Uppsala, Sweden). Sensorgrams were recorded at a frequency of 2.5 Hz. EcIspF was immobilized using amine-coupling chemistry with readings between 4500 and 5500 response units were obtained. After immobilization, a 6 min injection at 5 uL min-1 of 1 M ethanolamine was used to quench excess active succinamide ester groups. SPR binding experiments with EcIspF were performed at 10 deg C in 50 mM sodium phosphate pH 7 and 2 mM MgCl2 at a flow rate of 30 uL min-1. The sensor surface was regenerated between experiments by applying the running buffer for 20 min to dissociate any ligand complex. This was followed by a further 20 min stabilization period. The 40 min total regeneration time between experiments helped to eliminate any carry-over of EcIspF bound to ligand. Each injection at a given concentration was repeated three times. Blank injections were included for each measurement series and subtracted from the data. The equilibrium (steady state) binding curves were analyzed by nonlinear regression and fit to a one-to-one Langmuir binding model. All ligands assessed by SPR were greater than 95% purity as established by high-performance liquid chromatography or combustion analysis.

N[C@@H](Cc1c[nH]c2ccccc12)C(=O)NO [Tryptophanhydroxamate, 13]
Kd: 1920 nM
